{"source": "patent US20050069544A1", "about": "“Pharmaceutical composition and a method of treatment” (priority 1998, published 2005)", "key": {"PBMC from AIHA patients": {"test_system": "PBMC from AIHA patients", "test": "celELISA of cytokine production by PBMC from AIHA patients", "assay_type": "cell-based, human", "conditions": "AIHA patient (AIHA26); FIG. 24A", "protocol": "Cultured T-cells are stimulated with each of the epitopes given in Table 1 and after 5 days the responding cells were transferred to flat-bottomed microtitre plates (96-well Nunc-Immuno Maxisorp) coated with […] per well of monoclonal anti-cytokine capture antibody diluted in 0.05M alkaline carbonate coating buffer pH 9.6. Unbound capture antibody was removed by two washes with HBSS and non-specific binding potential blocked by incubation with 200 μl per well of phosphate buffered saline, pH 7.4 (PBS containing 3% BSA). […]\nAfter six washes with 0.5% Tween/PBS, 100 μl of 1:100,000 ExtrAvidin-alkaline phosphatase conjugate (Sigma) was then added to each of the wells and incubated at room temperature for 30 minutes. […] The absorbance at 405 nm was then measured using a Multiscan plate reader (Labsystems Basingstoke UK).\nCytokine secretion was measured by interpolation from a standard curve generated by incubating duplicate wells with doubling dilutions of recombinant human IFN-γ or IL-10 or TGF-β (Pharmingen). The standard curves were modelled by a smoothed cubic spline function applied to the absorbance reading and the cytokine concentrations after a quasilogarithmic transformation, where: quasiloge(z)=loge[z+{square root}[z^2+1]). […]"}, "[1]": {"test_system": "CD3+ CD4+ T-helper cells of AIHA patients", "test": "Flow cytometry of CD3, CD4 and intracellular cytokines in PBMC from AIHA patients", "assay_type": "cell-based, human", "conditions": "AIHA patient; FIGS. 24B to 24E", "protocol": "The secretion of cytokines identified in Example 1.3 by T-helper cells is confirmed by flow cytometery analysis. Simultaneous measurement of surface molecules CD3 and CD4 and intracellular cytokines IFN-γ or IL-10 was carried out using three colour flow cytometry analysis in PBMC, isolated from RhD-alloimmunised donors, cultured with either no antigen or RhD peptide for five days after stimulation. All analysis was carried out using Expo v2 analysis software (applied Cytometry Systems). The CD3+ T-cells were gated open and the numbers of IFN-γ+ and CD4+ cells were assessed. In all donors tested there was a significant increase in the proportion of CD4+ IFN-γ+CD3+ T-cells to at least one of the RhD peptides tested. In the representative example shown in FIGS. 12A to 12L it can be seen that the proportion of CD4+ IFN-γ+cells was 4.2% in unstimulated cultures (FIG. 12E). […] The IL-10 and CD4+ expression was also assessed on CD3+ gated population of T-cells. In PBMC cultures isolated from the alloimmune donor shown, there was an increase in the proportion of CD4+ IL-10+T-cells from 2.4% in unstimulated PBMC cultures (FIG. 12I) to 6.5% in culture stimulated with RhD peptide 13 (FIG. 12J) to 6.2% in cultures stimulated with RhD peptide 17 (FIG. 12K) and 5.9% with RhD peptide 28 (FIG. 12L).\nThe secretion of cytokines identified in Example 2.3 by T-cells is confirmed utilising the experiments mentioned in Example 1.4, which were repeated using PBMC isolated from patients with AIHA."}}, "data": [{"sequence": "WMFWPSFNSALLRSP (Residue 217-231 RhD; listed as Homo sapiens) [compound 36]", "values": [{"measurement": "IL-10 production by PBMC", "setting": "PBMC from AIHA patients", "value": "induces the production of IL-10"}, {"measurement": "CD3+ CD4+ T helper cells expressing intracellular IL-10", "setting": "[1]", "value": "expansion of a CD3+ CD4+population of T helper cells"}]}]}
